Data reported in patent publication US12378224B2 (Dong-A Socio Holdings Co., Ltd., priority 2016, dated 2025).

Each molecule was assayed against human MER (528-end) (Homo sapiens (Human), UniProt Q12866) (assay: HTRF Kinase Activity Biochemical Assay (KinEASE-TK)). Settings: 10 uM ATP.
Sequence of human MER (528-end) (Q12866 528-999 limits assumed): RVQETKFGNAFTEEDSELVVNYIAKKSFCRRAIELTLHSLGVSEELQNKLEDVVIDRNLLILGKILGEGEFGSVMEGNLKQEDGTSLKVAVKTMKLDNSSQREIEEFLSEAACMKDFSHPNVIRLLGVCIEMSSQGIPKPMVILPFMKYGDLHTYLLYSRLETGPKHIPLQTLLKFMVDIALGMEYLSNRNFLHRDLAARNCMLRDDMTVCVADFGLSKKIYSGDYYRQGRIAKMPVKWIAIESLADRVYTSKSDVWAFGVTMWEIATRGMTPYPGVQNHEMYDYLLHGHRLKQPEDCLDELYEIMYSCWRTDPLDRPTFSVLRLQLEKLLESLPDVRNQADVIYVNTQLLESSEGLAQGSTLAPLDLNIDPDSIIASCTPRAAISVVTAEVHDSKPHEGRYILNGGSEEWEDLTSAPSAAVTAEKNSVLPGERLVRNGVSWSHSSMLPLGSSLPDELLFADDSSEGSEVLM
Outline: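 Recombinant human MER (528-end) phosphorylated biotin-TK peptide substrate, 1 h at room temperature. Reaction stopped with detection buffer containing 0.375 nM Eu3+-cryptate anti-TK antibody and 0.062 uM streptavidin-XL665, 1 h further. Activity taken as HTRF ratio 665/620 nm ×10,000, 340 nm excitation.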
In the case of `Nc1ncc(-c2cnn(C3CCNCC3)c2)cc1C(=O)N[C@@H]1CCN(C(=O)Nc2cc(Cl)cc(Cl)c2)C1` [Example 146, (R)-2-amino-N-(1-((3,5-dichlorophenyl)carbamoyl)pyrrolidin-3-yl)-5-(1-(piperidin-4-yl)-1H-pyrazol-4-yl)nicotinamide], the IC50 is reported as 10 to 100 nM.
Work on `Nc1ncc(-c2cnn(C3CCNCC3)c2)cc1C(=O)N[C@@H]1CCN(C(=O)Oc2cccc(-c3ccccc3)c2)C1` [Example 147, [1,1′-biphenyl]-3-yl (R)-3-(2-amino-5-(1-(piperidin-4-yl)-1H-pyrazol-4-yl)nicotinamido)pyrrolidine-1-carboxylate] yielded an IC50 of 10 to 100 nM.
In the case of `CC(c1ccc(Cl)c(Cl)c1)N1CC[C@@H](NC(=O)c2cc(-c3cnn(C4CCNCC4)c3)cnc2N)C1` (stereo partly drawn) [Example 150, 2-amino-N-((3R)-1-(1-(3,4-dichlorophenyl)ethyl)pyrrolidin-3-yl)-5-(1-(piperidin-4-yl)-1H-pyrazol-4-yl)nicotinamide], the IC50 is reported as > 1000 nM.
`Nc1ncc(-c2cnn(C3CCNCC3)c2)cc1C(=O)NC1CCN(Cc2ccccc2)C1` (stereo not shown) [Example 152, 2-amino-N-(1-benzylpyrrolidin-3-yl)-5-(1-(piperidin-4-yl)-1H-pyrazol-4-yl)nicotinamide] showed an IC50 of 100 to 1000 nM.
With `Nc1ncc(-c2cnn(C3CCNCC3)c2)cc1C(=O)N[C@@H]1CCN(Cc2ccc(F)cc2)C1` [Example 153, (R)-2-amino-N-(1-(4-fluorobenzyl)pyrrolidin-3-yl)-5-(1-(piperidin-4-yl)-1H-pyrazol-4-yl)nicotinamide] the IC50 was 100 to 1000 nM.
`COc1cccc(CN2CC[C@@H](NC(=O)c3cc(-c4cnn(C5CCNCC5)c4)cnc3N)C2)c1` [Example 154, (R)-2-amino-N-(1-(3-methoxybenzyl)pyrrolidin-3-yl)-5-(1-(piperidin-4-yl)-1H-pyrazol-4-yl)nicotinamide] gave an IC50 of 100 to 1000 nM.
In the case of `Nc1ncc(-c2cnn(C3CCNCC3)c2)cc1C(=O)N[C@@H]1CCN(Cc2ccc([N+](=O)[O-])cc2)C1` [Example 156, (R)-2-amino-N-(1-(4-nitrobenzyl)pyrrolidin-3-yl)-5-(1-(piperidin-4-yl)-1H-pyrazol-4-yl)nicotinamide], the IC50 is reported as > 1000 nM.
With `Nc1ncc(-c2cnn(C3CCNCC3)c2)cc1C(=O)N[C@@H]1CCN(Cc2cc(F)c(F)cc2F)C1` [Example 157, (R)-2-amino-5-(1-(piperidin-4-yl)-1H-pyrazol-4-yl)-N-(1-(2,4,5-trifluorobenzyl)pyrrolidin-3-yl)nicotinamide] the IC50 was > 1000 nM.
`Nc1ncc(-c2cnn(C3CCNCC3)c2)cc1C(=O)N[C@@H]1CCN(Cc2ccc(F)c(Cl)c2)C1` [Example 158, (R)-2-amino-N-(1-(3-chloro-4-fluorobenzyl)pyrrolidin-3-yl)-5-(1-(piperidin-4-yl)-1H-pyrazol-4-yl)nicotinamide] was tested, and the IC50 was 100 to 1000 nM.
For `Nc1ncc(-c2cnn(C3CCNCC3)c2)cc1C(=O)N[C@@H]1CCN(Cc2c(Cl)cccc2Cl)C1` [Example 159, (R)-2-amino-N-(1-(2,6-dichlorobenzyl)pyrrolidin-3-yl)-5-(1-(piperidin-4-yl)-1H-pyrazol-4-yl)nicotinamide], the IC50 was > 1000 nM.
For `Nc1ncc(-c2cnn(C3CCNCC3)c2)cc1C(=O)N[C@@H]1CCN(Cc2ccc(F)c(F)c2)C1` [Example 160, (R)-2-amino-N-(1-(3,4-difluorobenzyl)pyrrolidin-3-yl)-5-(1-(piperidin-4-yl)-1H-pyrazol-4-yl)nicotinamide], the IC50 was > 1000 nM.
With `Nc1ncc(-c2cnn(C3CCNCC3)c2)cc1C(=O)N[C@@H]1CCN(Cc2c(F)ccc(F)c2F)C1` [Example 162, (R)-2-amino-5-(1-(piperidin-4-yl)-1H-pyrazol-4-yl)-N-(1-(2,3,6-trifluorobenzyl)pyrrolidin-3-yl)nicotinamide] the IC50 was > 1000 nM.
For `Cc1nc(C)c(CN2CC[C@@H](NC(=O)c3cc(-c4cnn(C5CCNCC5)c4)cnc3N)C2)s1` [Example 163, (R)-2-amino-N-(1-((2,4-dimethylthiazol-5-yl)methyl)pyrrolidin-3-yl)-5-(1-(piperidin-4-yl)-1H-pyrazol-4-yl)nicotinamide], the IC50 was > 1000 nM.
`Cc1ccc(C)c(CN2CC[C@@H](NC(=O)c3cc(-c4cnn(C5CCNCC5)c4)cnc3N)C2)c1` [Example 166, (R)-2-amino-N-(1-(2,5-dimethylbenzyl)pyrrolidin-3-yl)-5-(1-(piperidin-4-yl)-1H-pyrazol-4-yl)nicotinamide] was tested, and the IC50 was > 1000 nM.
`Nc1ncc(-c2cnn(C3CCNCC3)c2)cc1C(=O)N[C@@H]1CCN(Cc2ccccc2C(F)(F)F)C1` [Example 168, (R)-2-amino-5-(1-(piperidin-4-yl)-1H-pyrazol-4-yl)-N-(1-(2-(trifluoromethyl)benzyl)pyrrolidin-3-yl)nicotinamide] was tested, and the IC50 was > 1000 nM.
In the case of `Nc1ncc(-c2cnn(C3CCNCC3)c2)cc1C(=O)N[C@@H]1CCN(CC2CC=CCC2)C1` (stereo partly drawn) [Example 169, 2-amino-N-((3R)-1-(cyclohex-3-en-1-ylmethyl)pyrrolidin-3-yl)-5-(1-(piperidin-4-yl)-1H-pyrazol-4-yl)nicotinamide], the IC50 is reported as > 1000 nM.
`CC1(C)[C@H]2CC=C(CN3CC[C@@H](NC(=O)c4cc(-c5cnn(C6CCNCC6)c5)cnc4N)C3)[C@@H]1C2` [Example 170, 2-amino-N—((R)-1-(((1R,5S)-6,6-dimethylbicyclo[3.1.1]hept-2-en-2-yl)methyl)pyrrolidin-3-yl)-5-(1-(piperidin-4-yl)-1H-pyrazol-4-yl)nicotinamide] was tested, and the IC50 was > 1000 nM.
`Cn1cc(-c2cnc(N)c(C(=O)N[C@@H]3CCN(Cc4ccccc4)C3)c2)cn1` [Example 205, (R)-2-amino-N-(1-benzylpyrrolidin-3-yl)-5-(1-methyl-1H-pyrazol-4-yl)nicotinamide] was tested, and the IC50 was > 1000 nM.
For `Cn1cc(-c2cnc(N)c(C(=O)N[C@H]3CCN(Cc4ccccc4)C3)c2)cn1` [Example 207, (S)-2-amino-N-(1-benzylpyrrolidin-3-yl)-5-(1-methyl-1H-pyrazol-4-yl)nicotinamide], the IC50 was > 1000 nM.
`Cn1cc(-c2cnc(N)c(C(=O)N[C@@H]3CCN(Cc4ccccc4Cl)C3)c2)cn1` [Example 208, (R)-2-amino-N-(1-(2-chlorobenzyl)pyrrolidin-3-yl)-5-(1-methyl-1H-pyrazol-4-yl)nicotinamide] was tested, and the IC50 was 100 to 1000 nM.
In the case of `COc1cccc(CN2CC[C@@H](NC(=O)c3cc(-c4cnn(C)c4)cnc3N)C2)c1` [Example 209, (R)-2-amino-N-(1-(3-methoxybenzyl)pyrrolidin-3-yl)-5-(1-methyl-1H-pyrazol-4-yl)nicotinamide], the IC50 is reported as > 1000 nM.
Molecule `Cn1cc(-c2cnc(N)c(C(=O)N[C@@H]3CCN(Cc4ccc(Cl)cc4)C3)c2)cn1` [Example 210, (R)-2-amino-N-(1-(4-chlorobenzyl)pyrrolidin-3-yl)-5-(1-methyl-1H-pyrazol-4-yl)nicotinamide] has an IC50 of 100 to 1000 nM.
With `CCc1ccc(CN2CC[C@@H](NC(=O)c3cc(-c4cnn(C)c4)cnc3N)C2)cc1` [Example 211, (R)-2-amino-N-(1-(4-ethylbenzyl)pyrrolidin-3-yl)-5-(1-methyl-1H-pyrazol-4-yl)nicotinamide] the IC50 was > 1000 nM.
`CC(C)c1ccc(CN2CC[C@@H](NC(=O)c3cc(-c4cnn(C)c4)cnc3N)C2)cc1` [Example 212, (R)-2-amino-N-(1-(4-isopropylbenzyl)pyrrolidin-3-yl)-5-(1-methyl-1H-pyrazol-4-yl)nicotinamide] was tested, and the IC50 was > 1000 nM.
`Cn1cc(-c2cnc(N)c(C(=O)N[C@@H]3CCN(Cc4ccc(Cl)c(Cl)c4)C3)c2)cn1` [Example 213, (R)-2-amino-N-(1-(3,4-dichlorobenzyl)pyrrolidin-3-yl)-5-(1-methyl-1H-pyrazol-4-yl)nicotinamide] was tested, and the IC50 was > 1000 nM.
